Measurements taken from patent US20080293712A1, “Benzo[C][2,7]Naphtyridine Derivatives, Methods of Making Thereof and Methods of Use Thereof” (WYETH, priority 2007, published 2008).
Where two headings read alike, the source gives them in different places.

Columns and labels:
Type in all cases: biochemical
[1] = target: S6K (Homo sapiens, UniProt P23443); experiment: S6K kinase inhibition, Z'-LYTE FRET assay; conditions: 100 μM ATP
From the text: The ability of illustrative Benzo[c][2,7]naphthyridine Derivatives to inhibit PKA, Akt1, S6K in vitro can be determined using a Fluorescence Resonance Energy Transfer (FRET) assay, such as a Z′-LYTE™ Kinase Assay Platform, commercially available from Invitrogen (c.f. Rodems et al., ASSAY Drug Devel. Technol. 1:9-19 (2002) and Zhang et al., J. Biomol. Screen. 4:67-73 (1999)). Z′-Lyte™ assay is an in vitro FRET-based assay that utilizes differential sensitivity of phosphorylated and non-phosphorylated peptides to proteolytic cleavage. The peptide substrate (also available from Invitrogen for each of PKA, Akt1 and S6K) is labeled with two different fluorophores, a fluorescence donor at one end of the peptide and a fluorescence acceptor at the other end of the peptide. In the primary kinase reaction, the kinase phosphorylates the peptide substrate in the presence of ATP. In the secondary reaction, a site-specific protease recognizes and cleaves non-phosphorylated peptides, but not phosphorylated peptides. Cleavage disrupts FRET between the donor and acceptor fluorophores on the peptide, whereas uncleaved phosphorylated peptides maintain FRET. Based on a formula that uses the ratio of donor emission (at 460 nm) to acceptor emission (at […]) after excitation of the donor fluorophore at 400 nm, the extent of phosphorylation of the peptide substrates is calculated. IC50 values of illustrative Benzo[c][2,7]naphthyridine Derivatives, shown in Table 12, are calculated using LSW Data Analysis package add-in for Excel (Microsoft).

[2] = target: T1, PDK-1 (Homo sapiens, UniProt O15530); experiment: PDK-1 kinase inhibition ELISA assay (phosphorylation of His6-tagged SGK1 S422D by PDK-1)
T1 sequence (O15530 1-556): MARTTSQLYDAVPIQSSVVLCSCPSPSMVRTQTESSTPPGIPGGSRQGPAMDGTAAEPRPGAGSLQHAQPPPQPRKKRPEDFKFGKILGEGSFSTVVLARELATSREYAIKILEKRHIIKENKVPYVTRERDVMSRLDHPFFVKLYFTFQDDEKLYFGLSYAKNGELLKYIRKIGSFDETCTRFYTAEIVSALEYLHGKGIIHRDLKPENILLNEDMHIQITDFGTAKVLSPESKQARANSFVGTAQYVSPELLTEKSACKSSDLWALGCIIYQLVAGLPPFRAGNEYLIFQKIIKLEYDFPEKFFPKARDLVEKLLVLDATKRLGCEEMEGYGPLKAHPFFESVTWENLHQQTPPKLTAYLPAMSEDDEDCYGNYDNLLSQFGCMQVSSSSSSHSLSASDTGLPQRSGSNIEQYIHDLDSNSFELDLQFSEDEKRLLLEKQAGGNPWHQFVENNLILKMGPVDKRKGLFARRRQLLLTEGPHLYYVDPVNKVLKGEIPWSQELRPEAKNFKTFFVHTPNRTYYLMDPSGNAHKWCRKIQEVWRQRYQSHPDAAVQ

[3] = target: PKA (Homo sapiens, UniProt P17612); experiment: PKA kinase inhibition, Z'-LYTE FRET assay
[4] = PDK-1 ELISA, Table 11, read-out: Average IC50

S6K, sequence (P23443 whole entry): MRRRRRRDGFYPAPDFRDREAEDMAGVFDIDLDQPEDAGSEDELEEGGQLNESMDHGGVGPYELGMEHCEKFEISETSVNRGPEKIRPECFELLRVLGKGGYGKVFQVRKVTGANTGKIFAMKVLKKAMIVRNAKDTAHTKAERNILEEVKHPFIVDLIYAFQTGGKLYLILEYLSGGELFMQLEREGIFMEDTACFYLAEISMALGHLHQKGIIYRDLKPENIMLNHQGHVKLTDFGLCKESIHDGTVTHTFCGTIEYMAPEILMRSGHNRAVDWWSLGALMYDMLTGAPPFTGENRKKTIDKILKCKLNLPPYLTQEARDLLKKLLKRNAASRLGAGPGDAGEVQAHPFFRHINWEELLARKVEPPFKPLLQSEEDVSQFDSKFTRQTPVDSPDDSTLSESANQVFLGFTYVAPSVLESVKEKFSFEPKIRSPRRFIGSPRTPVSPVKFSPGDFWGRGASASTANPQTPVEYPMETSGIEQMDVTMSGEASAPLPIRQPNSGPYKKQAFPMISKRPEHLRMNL

| Structure (SMILES) | IC50 [1] [nM] | IC50 [2, 4] [nM] | IC50 ([3]; 20 μM ATP) [nM] | IC50 ([3]; 100 μM ATP) [nM] | IC50 [2] [nM] |
| --- | --- | --- | --- | --- | --- |
| COc1cc2ncc3c(N)nc(-c4cncc(OC[C@@H](N)CN5CCNC(=O)C5)c4)cc3c2cc1OC [Ib-37, 4-((2S)-2-amino-3-{[5-(4-amino-8,9-dimethoxybenzo[c]-2,7-naphthyridin-2-yl)pyridin-3-yl]oxy}propyl)piperazin-2-one] | 523 to 821 | 18 | 850 | > 2000 | – |
| COc1cc2ncc3c(N)nc(-c4cncc(O[C@H]5CCCNC5)c4)cc3c2cc1OC [Ib-39, 8,9-dimethoxy-2-{5-[(3S)-piperidin-3-yloxy]pyridin-3-yl}benzo[c]-2,7-naphthyridin-4-amine] | ≥ 1700 | 84 | > 4000 | > 2000 | – |
| COc1cc2ncc3c(N)nc(-c4cncc(OC[C@@H](N)Cc5ccc(NC(=O)OCc6ccccc6)cc5)c4)cc3c2cc1OC [Ib-23] | > 2000 | > 100 | – | > 2000 | – |
| COCCN(C)C[C@H](N)COc1cncc(-c2cc3c(cnc4cc(OC)c(OC)cc43)c(N)n2)c1 [Ib-38, (2S)-3-{[5-(4-amino-8,9-dimethoxybenzo[c]-2,7-naphthyridin-2-yl)pyridin-3-yl]oxy}-N1-(2-methoxyethyl)-N1-methylpropane-1,2-diamine] | 213 to 365 | 9 | 210 | 1040 | – |
| COc1cc2ncc3c(N)nc(-c4cncc(OC[C@@H](N)CN5CCOCC5)c4)cc3c2cc1OC [Ib-45, 2-(5-{[(2S)-2-amino-3-morpholin-4-ylpropyl]oxy}pyridin-3-yl)-8,9-dimethoxybenzo[c]-2,7-naphthyridin-4-amine] | 725 | 25 | 650 | > 2000 | – |
| Nc1nc(-c2cncc(OC[C@@H](N)Cc3ccccc3)c2)cc2c1cnc1ccccc12 [Ia-3, 2-(5-{[(2S)-2-Amino-3-phenylpropyl]oxy}pyridin-3-yl)benzo[c]-2,7-naphthyridin-4-amine] | 1200 | 104 | 300 | 911 | – |
| COc1cc2ncc3c(N)nc(-c4cncc(C#CCN(C)Cc5ccccc5)c4)cc3c2cc1OC [Ib-32, 2-(5-{3-[Benzyl(methyl)amino]prop-1-yn-1-yl}pyridin-3-yl)-8,9-dimethoxybenzo[c]-2,7-naphthyridin-4-amine] | > 2000 | 850 | – | > 2000 | – |
| COc1cc2ncc3c(N)nc(-c4cncc(O[C@@H]5CCCNC5)c4)cc3c2cc1OC [Ib-33, 8,9-dimethoxy-2-{5-[(3R)-piperidin-3-yloxy]pyridin-3-yl}benzo[c]-2,7-naphthyridin-4-amine] | 138 | 8 | – | 368 | – |
| COc1cc2ncc3c(N)nc(-c4cncc(OC5CCNCC5)c4)cc3c2cc1OC [Ib-40, 8,9-Dimethoxy-2-[5-(piperidin-4-yloxy)pyridin-3-yl]benzo[c]-2,7-naphthyridin-4-amine] | > 2000 | 117 | > 4000 | > 2000 | – |
| Nc1nc(-c2cncc(OC[C@@H](N)Cc3ccccc3)c2)cc2c1cnc1cc(/C=C/CCN3CCCC3)ccc12 [Ia-4, 2-(5-{[(2S)-2-amino-3-phenylpropyl]oxy}pyridin-3-yl)-8-[(1E)-4-pyrrolidin-1-ylbut-1-en-1-yl]benzo[c]-2,7-naphthyridin-4-amine] | 89 | 27 | < 32 | 70 | – |
| COc1cc2ncc3c(N)nc(-c4cncc(OC[C@@H](N)CN(C)Cc5ccccc5)c4)cc3c2cc1OC [Ib-27, (2S)-3-{[5-(4-amino-8,9-dimethoxybenzo[c]-2,7-naphthyridin-2-yl)pyridin-3-yl]oxy}-N1-benzyl-N1-methylpropane-1,2-diamine] | 37 to 43 | 6 | – | 110 to 217 | – |
| COCCOc1cc2ncc3c(N)nc(-c4cccnc4)cc3c2cc1OC [Ia-2, 9-Methoxy-8-(2-methoxyethoxy)-2-pyridin-3-ylbenzo[c]-2,7-naphthyridin-4-amine] | 542 | – | – | > 2000 | 43 |

Now from value to molecule:

| IC50 [1] [nM] | IC50 [2, 4] [nM] | IC50 ([3]; 20 μM ATP) [nM] | IC50 ([3]; 100 μM ATP) [nM] | IC50 [2] [nM] | Structure (SMILES) |
| --- | --- | --- | --- | --- | --- |
| 76 | 8 | – | – | – | COc1cc2ncc3c(N)nc(-c4cncc(OC[C@@H](N)Cc5cccc(Cl)c5)c4)cc3c2cc1OC [Ib-29, 2-(5-{[(2S)-2-amino-3-(3-chlorophenyl)propyl]oxy}pyridin-3-yl)-8,9-dimethoxybenzo[c]-2,7-naphthyridin-4-amine] |
| 763 | 21 | – | – | – | COc1cc2ncc3c(N)nc(-c4cncc(OC[C@H](N)Cc5cccc(C(F)(F)F)c5)c4)cc3c2cc1OC [Ib-28, 2-[5-({(2R)-2-amino-3-[3-(trifluoromethyl)phenyl]propyl}oxy)pyridin-3-yl]-8,9-dimethoxybenzo[c]-2,7-naphthyridin-4-amine] |
| 235 | 6 | – | – | – | COc1cc2ncc3c(N)nc(-c4cncc(OC[C@H](C)N)c4)cc3c2cc1OC [Ib-31, 2-(5-{[(2S)-2-aminopropyl]oxy}pyridin-3-yl)-8,9-dimethoxybenzo[c]-2,7-naphthyridin-4-amine] |
| 21 to 102 | 3 | < 32 | 183 | – | COc1cc2ncc3c(N)nc(-c4cncc(OC[C@@H](N)Cc5ccc(F)cc5)c4)cc3c2cc1OC [Ib-41, 2-(5-{[(2S)-2-amino-3-(4-fluorophenyl)propyl]oxy}pyridin-3-yl)-8,9-dimethoxybenzo[c]-2,7-naphthyridin-4-amine] |
| ≥ 1740 | 206 | > 4000 | > 2000 | – | COc1cc2ncc3c(N)nc(-c4cncc(OC[C@@H]5CN(c6cccc(F)c6)C(=O)N5)c4)cc3c2cc1OC [Ib-35, (4S)-4-({[5-(4-amino-8,9-dimethoxybenzo[c]-2,7-naphthyridin-2-yl)pyridin-3-yl]oxy}methyl)-1-(3-fluorophenyl)imidazolidin-2-one] |
| 19 | 6 | < 32 | – | – | COc1cc2ncc3c(N)nc(-c4cncc(OC[C@@H](N)Cc5ccc(Cl)c(Cl)c5)c4)cc3c2cc1OC [Ib-44, 2-(5-{[(2S)-2-amino-3-(3,4-dichlorophenyl)propyl]oxy}pyridin-3-yl)-8,9-dimethoxybenzo[c]-2,7-naphthyridin-4-amine] |
| 97 | 2 | – | – | – | COc1cc2ncc3c(N)nc(-c4cncc(OC[C@@H](C)N)c4)cc3c2cc1OC [Ib-30, 2-(5-{[(2R)-2-aminopropyl]oxy}pyridin-3-yl)-8,9-dimethoxybenzo[c]-2,7-naphthyridin-4-amine] |
| 169 to 194 | 13 | – | 198 to 219 | – | COc1cc2ncc3c(N)nc(-c4cncc(OC[C@@H](N)Cc5cccc(C(F)(F)F)c5)c4)cc3c2cc1OC [Ib-24, 2-[5-({(2S)-2-amino-3-[3-(trifluoromethyl)phenyl]propyl}oxy)pyridin-3-yl]-8,9-dimethoxybenzo[c]-2,7-naphthyridin-4-amine] |
| 65 | 8 | < 32 | 179 | – | COc1cc2ncc3c(N)nc(-c4cncc(OC[C@@H](N)CN5CCc6ccccc65)c4)cc3c2cc1OC [Ib-46, 2-(5-{[(2S)-2-amino-3-(2,3-dihydro-1H-indol-1-yl)propyl]oxy}pyridin-3-yl)-8,9-dimethoxybenzo[c]-2,7-naphthyridin-4-amine] |
